We go through four molecules from patent publication US9573953B2, “Heteroaromatic compounds as PI3 kinase modulators and methods of use” (CALITOR SCIENCES, LLC, priority 2013, dated 2017).

A short description of data set [1]: Compound stability in rat liver microsomes. It is filed as in vitro ADME. The following applies: for half-life at 5 μM / CLint scaled at 5 μM: pH 7.4; for CLint scaled at 5 μM: rat liver microsomes, in vivo CLint extrapolated. As to the method:
(§1) Human or rat liver microsomes incubations were conducted in duplicate in polypropylene tubes. The typical incubation mixtures consisted of human or rat liver microsomes (0.5 mg protein/mL), compounds of interest (5 μM) and NADPH (1.0 mM) in a total volume of 200 μL potassium phosphate buffer (PBS, 100 mM, pH=7.4). Compounds were dissolved in DMSO and diluted with PBS such that the final concentration of DMSO was 0.05%. The enzymatic reactions were commenced with the addition of protein after a 3-min preincubation and incubated in a water bath open to the air at 37° C. Reactions were terminated at various time points (0, 5, 10, 15, 30, 60 min) by adding equal volume of ice-cold acetonitrile. The samples were stored at −80° C. until LC/MS/MS assays.
(§2) The concentrations of compounds in the incubation mixtures of human or rat liver microsomes were determined by a LC/MS/MS method. The ranges of the linearity in the concentration range were determined for each tested compounds.
(§3) A parallel incubation was performed using denatured microsomes as the negative control, and reactions were terminated at various time points (0, 15, 60 min) after incubation at 37° C.
(§4) Dextromethorphan (70 μM) was selected as the positive control, and reactions were terminated at various time points (0, 5, 10, 15, 30, 60 min) after incubation at 37° C. Both positive and negative control samples were included in each assay to ensure the integrity of the microsomal incubation system.
(§5) The concentrations of compounds in human or rat liver microsome incubations were plotted as a percentage of the relevant zero time point control for each reaction. The in vivo CLint were extrapolated (ref.: Naritomi Y, Terashita S, Kimura S, Suzuki A, Kagayama A, Sugiyama Y. “Prediction of human hepatic clearance from in vivo animal experiments and in vitro metabolic studies with liver microsomes from animals and humans”, Drug Metabolism and Disposition, 2001, 29, 1316-1324).

Data set [2] concerns the target T1, PI3K (p120γ) (h) (Homo sapiens, UniProt P48736).
T1 construct: purchased Millipore UK Ltd (assays run there as a service)
The data set can be described thus: PI3K (p120γ) (h) non-radioactive (HTRF) assay. In kind it is biochemical. The method, then:
PI3K (p120γ) (h) [Non-Radioactive Assay]
PI3K (p120γ) (h) is incubated in assay buffer containing 10 μM phosphatidylinositol-4,5-bisphosphate and MgATP (concentration as required). The reaction is initiated by the addition of the MgATP mix. After incubation for 30 minutes at room temperature, the reaction is stopped by the addition of stop solution containing EDTA and biotinylated phosphatidylinositol-3,4,5-trisphosphate. Finally, detection buffer is added, which contains europium-labelled anti-GST monoclonal antibody, GST-tagged GRP1 PH domain and streptavidin-allophycocyanin. The plate is then read in time-resolved fluorescence mode and the homogenous time-resolved fluorescence (HTRF) signal is determined according to the formula HTRF=10000×(Em665 nm/Em620 nm).
The kinase assays described herein were performed at Millipore UK Ltd, Dundee Technology Park, Dundee DD2 1SW, UK.
A general note: In TR-FRET formats the signal depends on donor and acceptor labels being close together.

A short description of data set [3]: Pharmacokinetic profiles in rats. It is filed as in vivo. The following applies: for F: iv dose 2 mg/kg, oral dose generally 5 or 10 mg/kg; for Cl/F / AUC(0-t) / half-life / Vd: iv dosing, 2 mg/kg; for AUC(0-t) / half-life / Vd: rat, plasma; for Vd: read-out: Vss. The method, then:
The compounds disclosed herein are assessed in pharmacokinetic studies in mice, rats, dogs or monkeys. The compounds are administered as a water solution, 2% HPMC+1% TWEEN®80 in water solution, 5% DMSO+5% solutol in saline, 4% MC suspension or capsule. For the intravenous administration, the animals are generally given at 1 or 2 mg/kg dose. For the oral (p.o.) dosing, mice and rats are generally given 5 or 10 mg/kg dose, and dogs and monkeys are generally given 10 mg/kg dose. The blood samples (0.3 mL) are drawn at 0.25, 0.5, 1.0, 2.0, 3.0, 4.0, 6.0, 8.0, 12 and 24 h time points or 0.083, 0.25, 0.5, 1.0, 2.0, 4.0, 6.0, 8.0 and 24 h time points and centrifuged at 3,000 or 4000 rpm for 2 to 10 min. The plasma solutions are collected and stored at −20° C. or −70° C. until analyzed by LC/MS/MS as described above.

Data set [4] in a line: Compound stability in human liver microsomes. It is filed as in vitro ADME. The following applies: for half-life at 5 μM / CLint scaled at 5 μM: pH 7.4; for CLint scaled at 5 μM: human liver microsomes, in vivo CLint extrapolated. As to the method:
as §1, §2, §3, §4, §5

The test system of data set [5] is U87MG glioblastoma cells. The data set can be described thus: Tumor xenograft model (U87MG), tumor growth inhibition. It is filed as in vivo, mice. The following applies: oral gavage. As to the method:
The efficacy of compounds disclosed herein was evaluated in a standard murine model of tumorigenesis. Human tumor cells (U87MG glioblastoma cells from ATCC) were expended in culture, harvested, and injected subcutaneously onto the rear flank of 6-7 week old female athymic nude mice (BALB/cA nu/nu, Hunan SLAC Laboratory Animal, Co.) (n=6-10 for vehicle group and for each dosing group). When tumors reached a volume of 100-250 mm^3, animals were randomly divided into vehicle control (for example, 5% DMSO+70% CAPTISOL® (30%), 7% HCl (pH1), 18% CAPTISOL® (30%); or 7% DMSO, 7% HCl (pH1), 70% CAPTISOL® (30%), 16% CAPTISOL® (30%), or the like) and compound groups. Subsequent administration of compound by oral gavage begins anywhere from day 0 to day 15 post tumor cell challenge and generally continues with once a day for the duration of the experiment.
Progression of tumor growth is assessed by tumor volumes and recorded as a function of time. The long (L) and short (W) axes of the subcutaneous tumors were measured with calipers twice weekly, and the tumor volume (TV) calculated as (L×W^2)/2). TGI was calculated from the difference between the median tumor volumes of vehicle-treated and drug-treated mice, expressed as a percentage of the median tumor volume of the vehicle-treated control group, by the following relation:
Initial statistical analysis is done by repeated measures analysis of variance (RMANOVA), followed by Scheffe post hoc testing for multiple comparisons. Vehicle alone (5% DMSO+70% CAPTISOL® (30%), 7% HCl (pH1), 18% CAPTISOL® (30%); or 7% DMSO, 7% HCl (pH1), 70% CAPTISOL® (30%), 16% CAPTISOL® (30%), or the like) is the negative control.

Setting [6] is: rat liver microsomes 0.5 mg protein/mL, compound 5 μM, NADPH, 37° C.
[7] abbreviates: human liver microsomes 0.5 mg protein/mL, compound 5 μM, NADPH, 37° C.

T1 sequence (P48736 whole entry): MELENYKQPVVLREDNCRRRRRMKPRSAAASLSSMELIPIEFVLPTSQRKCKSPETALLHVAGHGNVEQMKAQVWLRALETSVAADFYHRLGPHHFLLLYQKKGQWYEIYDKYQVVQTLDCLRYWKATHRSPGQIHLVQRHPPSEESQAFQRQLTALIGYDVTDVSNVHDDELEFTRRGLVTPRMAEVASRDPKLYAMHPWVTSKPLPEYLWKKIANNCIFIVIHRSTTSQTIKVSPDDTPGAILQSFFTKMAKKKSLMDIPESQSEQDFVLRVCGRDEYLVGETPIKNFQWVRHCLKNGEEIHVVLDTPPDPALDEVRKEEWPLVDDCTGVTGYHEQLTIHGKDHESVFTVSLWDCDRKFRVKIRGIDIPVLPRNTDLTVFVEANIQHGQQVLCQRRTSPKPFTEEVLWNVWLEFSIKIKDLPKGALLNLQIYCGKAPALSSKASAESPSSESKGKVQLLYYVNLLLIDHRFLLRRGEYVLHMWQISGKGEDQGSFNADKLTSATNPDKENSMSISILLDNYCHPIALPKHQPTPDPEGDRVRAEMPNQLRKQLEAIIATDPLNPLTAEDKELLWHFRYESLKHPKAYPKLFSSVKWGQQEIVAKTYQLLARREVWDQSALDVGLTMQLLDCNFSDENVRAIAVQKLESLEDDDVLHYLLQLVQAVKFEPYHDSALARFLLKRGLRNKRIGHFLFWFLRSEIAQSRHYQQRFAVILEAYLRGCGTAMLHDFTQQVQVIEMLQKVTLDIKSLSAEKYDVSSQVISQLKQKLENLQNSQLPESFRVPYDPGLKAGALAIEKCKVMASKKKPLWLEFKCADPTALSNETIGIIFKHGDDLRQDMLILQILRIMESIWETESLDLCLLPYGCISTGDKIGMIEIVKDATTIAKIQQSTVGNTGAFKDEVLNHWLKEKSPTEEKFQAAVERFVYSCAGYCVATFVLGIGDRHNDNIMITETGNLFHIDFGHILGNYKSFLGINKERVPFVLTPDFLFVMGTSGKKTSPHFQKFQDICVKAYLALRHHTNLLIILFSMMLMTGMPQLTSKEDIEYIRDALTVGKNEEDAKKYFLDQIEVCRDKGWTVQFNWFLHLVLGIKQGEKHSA

What is called half-life is the time in which the quantity being followed falls by half. Higher therefore signals slow loss. For orientation: CLint scaled means a measure of how fast metabolising enzymes remove a compound, apart from limits set by blood flow. The term IC50 denotes the midpoint of a concentration-inhibition curve. As a reminder, the AUC(0-t) is exposure summed from dosing to a finite time, without extrapolation to infinity. Low readings indicate low exposure, high ones high exposure. As to `COc1ncc(-c2ccn3ncc(C#CCO)c3n2)cc1NS(=O)(=O)c1ccc(F)cc1F` [Ex. 1, 2,4-difluoro-N-(5-(3-(3-hydroxyprop-1-yn-1-yl)pyrazolo[1,5-a]pyrimidin-5-yl)-2-methoxypyridin-3-yl)benzenesulfonamide], in data set [1] (setting [6]), the half-life at 5 μM was 2.92 h. For the same molecule, the CLint scaled at 5 μM in data set [1] is 0.85 L/h/kg. The IC50 in data set [2] worked out at 6 nM. In addition, in data set [3], the F stood at 102.00%, the Cl/F is listed as 0.17 L/h/kg, the AUC(0-t) came out at 12.1 µg·h/mL and the half-life is 3.93 h. In addition, the Vd in data set [3] was found to be 0.32 L/kg. Also, the half-life at 5 μM in data set [4] (setting [7]) was determined as 11.8 h. In addition, the CLint scaled at 5 μM in data set [4] was 0.147 L/h/kg. Moreover, the “TGI % U87MG” value in data set [5] (1 mg/kg, 12 days) is 26%. In addition, the “TGI % U87MG” value in data set [5] (3 mg/kg, 12 days) was found to be 37%. For the same molecule, in data set [5] (10 mg/kg, 12 days), the “TGI % U87MG” value is on record as 68%.

Take `COc1ncc(-c2ccn3ncc(C#N)c3c2)cc1NS(=O)(=O)c1ccc(F)cc1F` [Ex. 3, N-(5-(3-cyanopyrazolo[1,5-a]pyridin-5-yl)-2-methoxypyridin-3-yl)-2,4-difluorobenzenesulfonamide]: the figures for the half-life at 5 μM in data set [1] (setting [6]) and in data set [4] (setting [7]) were 9.59 h and 40.1 h, respectively. Also, the figures for the intrinsic clearance (CLint scaled) at 5 μM in data set [1] and in data set [4] were 0.259 L/h/kg and 0.0432 L/h/kg, respectively. Further, in data set [2], the IC50 turned out to be 6 nM. The F in data set [3] was found to be 94.75%. Also, in data set [3], the Cl/F was determined as 0.29 L/h/kg. In data set [3], this molecule displayed an AUC(0-t) of 7.07 µg·h/mL. In data set [3], this molecule gave a half-life of 2.77 h. Besides, the Vd in data set [3] came out at 0.85 L/kg. The “TGI % U87MG” value in data set [5] (0.3 mg/kg, 13 days) is given as 26%; in data set [5] (1 mg/kg, 13 days), 70%; in data set [5] (3 mg/kg, 13 days) it was 95%.

Turning to `COc1ncc(-c2ccn3ncc(C#CCO)c3c2)cc1NS(=O)(=O)c1ccc(F)cc1F` [Ex. 4, 2,4-difluoro-N-(5-(3-(3-hydroxyprop-1-yn-1-yl)pyrazolo[1,5-a]pyridin-5-yl)-2-methoxypyridin-3-yl)benzenesulfonamide], the half-life at 5 μM in data set [1] (setting [6]) was 2.56 h. The CLint scaled at 5 μM in data set [1] is 0.972 L/h/kg. The 50% inhibitory concentration (IC50) in data set [2] was 15 nM. Besides, in data set [3], the F is 91.75%, the Cl/F was 0.28 L/h/kg, the AUC(0-t) was 7.35 µg·h/mL and the half-life is 1.93 h. Also, the Vd in data set [3] was determined as 0.48 L/kg. The same molecule gave a half-life at 5 μM in data set [4] (setting [7]) of 4.99 h. Besides, the CLint scaled at 5 μM in data set [4] was 0.349 L/h/kg. Moreover, in data set [5] (1 mg/kg, 13 days), the “TGI % U87MG” value is reported as 32%. Also, the “TGI % U87MG” value in data set [5] (3 mg/kg, 13 days) is 53%. Also, in data set [5] (10 mg/kg, 13 days), the “TGI % U87MG” value is recorded as 89%.

With `COc1ncc(-c2ccn3ncc(C#N)c3n2)cc1NS(=O)(=O)c1ccc(F)cc1F` [Ex. 2, N-(5-(3-cyanopyrazolo[1,5-a]pyrimidin-5-yl)-2-methoxypyridin-3-yl)-2,4-difluorobenzenesulfonamide], in data set [1] (setting [6]), the T1/2 entry is given as “∞”. Also, the IC50 in data set [2] was found to be 5 nM. In addition, in data set [3], the F came out at 69.48%, the Cl/F came out at 0.26 L/h/kg, the AUC(0-t) was found to be 7.72 µg·h/mL and the half-life was 3.7 h. Moreover, the Vd in data set [3] worked out at 0.8 L/kg. Also, in data set [4] (setting [7]), the T1/2 entry is listed as “∞”. Also, the “TGI % U87MG” value in data set [5] (1 mg/kg, 12 days) amounted to 59%. Moreover, in data set [5] (3 mg/kg, 12 days), the “TGI % U87MG” value turned out to be 76%.
